What follows are compounds tested against T1, IRAK4 (Homo sapiens, UniProt Q9NWZ3) (assay: Western blot degradation of IRAK4 (hPBMC)). Conditions: Table D1.
T1 construct: evaluate the effects of the compounds of the present disclosure on the expression of target proteins in cells; endogenous in cells; host or cells: hPBMC
T1 sequence (Q9NWZ3 1-460): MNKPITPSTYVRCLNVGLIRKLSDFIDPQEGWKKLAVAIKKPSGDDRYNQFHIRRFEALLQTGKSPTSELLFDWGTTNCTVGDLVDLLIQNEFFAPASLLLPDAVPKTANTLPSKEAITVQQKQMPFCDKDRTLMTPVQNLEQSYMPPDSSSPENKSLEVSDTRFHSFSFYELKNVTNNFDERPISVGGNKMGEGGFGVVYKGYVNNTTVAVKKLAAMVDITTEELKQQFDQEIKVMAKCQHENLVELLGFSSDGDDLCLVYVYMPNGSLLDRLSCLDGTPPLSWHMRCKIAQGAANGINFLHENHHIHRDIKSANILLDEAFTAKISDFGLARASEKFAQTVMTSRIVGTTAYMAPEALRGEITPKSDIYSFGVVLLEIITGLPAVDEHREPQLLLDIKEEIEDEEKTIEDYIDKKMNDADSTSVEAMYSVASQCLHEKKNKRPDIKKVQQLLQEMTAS
Type: cell-based
Description: Conventional Western blot assay was performed to evaluate the effects of the compounds of the present disclosure on the expression of target proteins in cells.
(1) Cell Seeding and Protein Harvesting: The selected cells were processed according to the cell seeding procedure and protein harvesting procedure in Table III-2. Table III-2 Cell Seeding and Protein Harvesting Procedures
(2) To the collected supernatant, 5X SDS sample loading buffer was added, followed by denaturation at 95°C for 5 minutes. The denatured samples were then separated by SDS-PAGE electrophoresis on a polyacrylamide gel. Proteins were transferred to a nitrocellulose membrane (0.45 µm NC membrane), blocked with blocking buffer at room temperature for 1 hour, and subjected to antibody incubation and development procedures according to the antibody manufacturer's instructions (Cell Signaling Technology).
Half-Maximal Degradation Concentration value (the drug concentration required for degrading proteins by 50%, abbreviated as DC50) reads method: comparing the grayscale values of Western blot bands from drug-treated samples with those from blank DMSO-treated controls, and identifying the drug concentration range at which the grayscale value is half that of the DMSO-treated control bands.
DC50 values can be calculated using ImageJ software to measure grayscale values of Western blot bands from drug-treated samples. The concentration-response curve is fitted to estimate the drug concentration corresponding to half the grayscale value.
Target protein remaining (%) refers to the percentage of target protein remaining in hPBMC cells after treatment with protein degrader compounds.
Calculation method for target protein remaining (%): Use ImageJ software to measure grayscale values of Western blot bands from drug (protein degrader)-treated samples. The grayscale value of drug-treated bands is divided by that of internal control protein bands, and the resulting quotient is normalized to obtain the relative percentage of remaining target protein after protein degrader treatment.
Target protein degradation rate (%) = 100% - target protein remaining (%).

SMILES	Degradation of substrate protein IRAK4 (substrate protein remaining %)
O=C1CCN(c2ccc(CN3CCC(n4cc(NC(=O)c5cnn6ccc(N7C[C@H]8C[C@@H]7CO8)nc56)c(C(F)F)n4)CC3)cn2)C(=O)N1 [GT-05054, 5-((1R,4R)-2-oxa-5-azabicyclo[2.2.1]heptan-5-yl)-N-(3-(difluoromethyl)-1-(1-((6-(2,4-dioxotetrahydropyrimidin-1(2H)-yl)pyridin-3-yl)methyl)piperidin-4-yl)-1H-pyrazol-4-yl)pyrazolo[1,5-a]pyrimidine-3-carboxamide]	A (A is defined as 0% ≤ substrate protein remaining % ≤ 80%)
CC(C)(O)c1cc2nc(C3CCN(Cc4cccnc4C4CCC(=O)NC4=O)CC3)oc2cc1NC(=O)c1cccc(C(F)(F)F)n1 (centres unmarked) [GT-07631, N-(2-(1-((2-(2,6-dioxopiperidin-3-yl)pyridin-3-yl)methyl)piperidin-4-yl)-5-(2-hydroxypropan-2-yl)benzo[d]oxazol-6-yl)-6-(trifluoromethyl)picolinamide]	A (A is defined as 0% ≤ substrate protein remaining % ≤ 80%)
CC(C)Nc1cc(-n2ccc3cc(C#N)cnc32)ncc1C(=O)NC1CCN(Cc2cncc(C3CCC(=O)NC3=O)c2)CC1 (centres unmarked) [GT-07413, 6-(5-cyano-1H-pyrrolo[2,3-b]pyridin-1-yl)-N-(1-((5-(2,6-dioxopiperidin-3-yl)pyridin-3-yl)methyl)piperidin-4-yl)-4-(isopropylamino)nicotinamide]	A (A is defined as 0% ≤ substrate protein remaining % ≤ 80%)
O=C1CCC(c2ccc(CN3CCC(n4cc(NC(=O)c5coc(-c6ccnc(NCC7CC7)c6)n5)c(C(F)F)n4)CC3)cc2F)C(=O)N1 (centres unmarked) [GT-04176, 2-(2-((cyclopropylmethyl)amino)pyridin-4-yl)-N-(3-(difluoromethyl)-1-(1-(4-(2,6-dioxopiperidin-3-yl)-3-fluorobenzyl)piperidin-4-yl)-1H-pyrazol-4-yl)oxazole-4-carboxamide]	A (A is defined as 0% ≤ substrate protein remaining % ≤ 80%)
CC(C)(O)c1cc2nc(C3CCN(Cc4ccc(C5CCC(=O)NC5=O)cc4)CC3)oc2cc1NC(=O)c1cccc(C(F)(F)F)n1 (centres unmarked) [GT-05771, N-(2-(1-(4-(2,6-dioxopiperidin-3-yl)benzyl)piperidin-4-yl)-5-(2-hydroxypropan-2-yl)benzo[d]oxazol-6-yl)-6-(trifluoromethyl)picolinamide]	A (A is defined as 0% ≤ substrate protein remaining % ≤ 80%)
O=C1CCN(c2cccc(CN3CCC(n4cc(NC(=O)c5cnn6ccc(N7CCOCC7)nc56)c(C(F)F)n4)CC3)c2)C(=O)N1 [GT-04177, N-(3-(difluoromethyl)-1-(1-(3-(2,4-dioxotetrahydropyrimidin-1(2H)-yl)benzyl)piperidin-4-yl)-1H-pyrazol-4-yl)-5-morpholinopyrazolo[1,5-a]pyrimidine-3-carboxamide]	A (A is defined as 0% ≤ substrate protein remaining % ≤ 80%)
COc1cc2nn(C3CCN(Cc4ccc(N5CCC(=O)NC5=O)nc4)CC3)cc2cc1NC(=O)c1cccc(C(F)(F)F)c1 [GT-04879, N-(2-(1-((6-(2,4-dioxotetrahydropyrimidin-1(2H)-yl)pyridin-3-yl)methyl)piperidin-4-yl)-6-methoxy-2H-indazol-5-yl)-3-(trifluoromethyl)benzamide]	A (A is defined as 0% ≤ substrate protein remaining % ≤ 80%)
Cc1cc(-c2nc(C(=O)Nc3cc4oc(N5CCN(Cc6ccc(N7CCC(=O)NC7=O)cc6)CC5)nc4nc3N3CC[C@@H](O)C3)co2)ccn1 [GT-05807, (R)-N-(2-(4-(4-(2,4-dioxotetrahydropyrimidin-1(2H)-yl)benzyl)piperazin-1-yl)-5-(3-hydroxypyrrolidin-1-yl)oxazolo[4,5-b]pyridin-6-yl)-2-(2-methylpyridin-4-yl)oxazole-4-carboxamide]	A (A is defined as 0% ≤ substrate protein remaining % ≤ 80%)
CC(C)Nc1cc(-n2ccc3cc(C#N)cnc32)ncc1C(=O)NC1CCN(Cc2cccnc2C2CCC(=O)NC2=O)CC1 (centres unmarked) [GT-07546, 6-(5-cyano-1H-pyrrolo[2,3-b]pyridin-1-yl)-N-(1-((2-(2,6-dioxopiperidin-3-yl)pyridin-3-yl)methyl)piperidin-4-yl)-4-(isopropylamino)nicotinamide]	A (A is defined as 0% ≤ substrate protein remaining % ≤ 80%)
COc1cc2nn(C3CCN(Cc4cccnc4C4CCC(=O)NC4=O)CC3)cc2cc1NC(=O)c1cccc(C(F)(F)F)n1 (centres unmarked) [GT-07550, N-(2-(1-((2-(2,6-dioxopiperidin-3-yl)pyridin-3-yl)methyl)piperidin-4-yl)-6-methoxy-2H-indazol-5-yl)-6-(trifluoromethyl)picolinamide]	A (A is defined as 0% ≤ substrate protein remaining % ≤ 80%)
COc1cc2nn(C3CCN(Cc4ccc(C5CCC(=O)NC5=O)cc4)CC3)cc2cc1NC(=O)c1cccc(C(F)(F)F)n1 (centres unmarked) [GT-04761, N-(2-(1-(4-(2,6-dioxopiperidin-3-yl)benzyl)piperidin-4-yl)-6-methoxy-2H-indazol-5-yl)-6-(trifluoromethyl)picolinamide]	A (A is defined as 0% ≤ substrate protein remaining % ≤ 80%)
COc1cc2nn(C3CCN(Cc4ccnc(N5CCC(=O)NC5=O)c4)CC3)cc2cc1NC(=O)c1cccc(C(F)(F)F)c1 [GT-07415, N-(2-(1-((2-(2,4-dioxotetrahydropyrimidin-1(2H)-yl)pyridin-4-yl)methyl)piperidin-4-yl)-6-methoxy-2H-indazol-5-yl)-3-(trifluoromethyl)benzamide]	A (A is defined as 0% ≤ substrate protein remaining % ≤ 80%)
CC(C)(O)c1cc2nc(C3CCN(Cc4ccnc(N5CCC(=O)NC5=O)c4)CC3)sc2cc1NC(=O)c1cccc(C(F)(F)F)n1 [GT-07619, N-(2-(1-((2-(2,4-dioxotetrahydropyrimidin-1(2H)-yl)pyridin-4-yl)methyl)piperidin-4-yl)-5-(2-hydroxypropan-2-yl)benzo[d]thiazol-6-yl)-6-(trifluoromethyl)picolinamide]	A (A is defined as 0% ≤ substrate protein remaining % ≤ 80%)
COc1ccc2cn(C3CCN(Cc4ccc(N5CCC(=O)NC5=O)nc4)CC3)nc2c1NC(=O)c1cccc(C(F)(F)F)c1 [GT-04887, N-(2-(1-((6-(2,4-dioxotetrahydropyrimidin-1(2H)-yl)pyridin-3-yl)methyl)piperidin-4-yl)-6-methoxy-2H-indazol-7-yl)-3-(trifluoromethyl)benzamide]	A (A is defined as 0% ≤ substrate protein remaining % ≤ 80%)
COc1cc2nn(C3CCN(Cc4ccnc(C5CCC(=O)NC5=O)c4)CC3)cc2cc1NC(=O)c1cccc(C(F)(F)F)c1 (centres unmarked) [GT-07418, N-(2-(1-((2-(2,6-dioxopiperidin-3-yl)pyridin-4-yl)methyl)piperidin-4-yl)-6-methoxy-2H-indazol-5-yl)-3-(trifluoromethyl)benzamide]	A (A is defined as 0% ≤ substrate protein remaining % ≤ 80%)
CC(C)(O)c1cc2nc(C3CCN(Cc4ccnc(N5CCC(=O)NC5=O)c4)CC3)oc2cc1NC(=O)c1cccc(C(F)(F)F)n1 [GT-07627, N-(2-(1-((2-(2,4-dioxotetrahydropyrimidin-1(2H)-yl)pyridin-4-yl)methyl)piperidin-4-yl)-5-(2-hydroxypropan-2-yl)benzo[d]oxazol-6-yl)-6-(trifluoromethyl)picolinamide]	A (A is defined as 0% ≤ substrate protein remaining % ≤ 80%)
COc1ccc2cn(C3CCN(Cc4ccc(C5CCC(=O)NC5=O)cc4)CC3)nc2c1NC(=O)c1cccc(C(F)(F)F)c1 (centres unmarked) [GT-04813, N-(2-(1-(4-(2,6-dioxopiperidin-3-yl)benzyl)piperidin-4-yl)-6-methoxy-2H-indazol-7-yl)-3-(trifluoromethyl)benzamide]	A (A is defined as 0% ≤ substrate protein remaining % ≤ 80%)

From EP4678638A1, “NEW E3 UBIQUITIN LIGASE LIGAND, PROTEIN DEGRADATION AGENT AND USE THEREOF” (priority 2023, dated 2024)
